Here are results for 34 molecules from patent US10968193B2, “Antidiabetic bicyclic compounds” (Merck Sharp & Dohme Corp., priority 2014, dated 2021).

The target of this test is T1, human GPR40 (Homo sapiens, UniProt O14842).
T1 construct: expressed in transfected cells; host or cells: HEK cells stably expressing the aequorin reporter
T1 sequence (O14842 whole entry): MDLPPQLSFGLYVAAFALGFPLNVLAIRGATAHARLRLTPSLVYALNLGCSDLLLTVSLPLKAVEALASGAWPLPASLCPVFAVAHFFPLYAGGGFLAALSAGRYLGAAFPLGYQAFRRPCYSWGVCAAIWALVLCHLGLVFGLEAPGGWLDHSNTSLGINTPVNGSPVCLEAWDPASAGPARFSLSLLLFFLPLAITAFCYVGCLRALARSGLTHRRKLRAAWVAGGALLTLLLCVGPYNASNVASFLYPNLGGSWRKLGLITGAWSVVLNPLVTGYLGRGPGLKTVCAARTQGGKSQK
Description: Inositol Phosphate Turnover (IP1) Assay 3. The test is classed as cell-based. To be noted: HEK cells stably expressing human GPR40. Summed up: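 HEK cells stably expressing human GPR40, plated 16 h before, were treated with compound for 60 min at 37 °C in stimulation buffer. IP1 measured by HTRF (665/620 nm ratio) against an IP1 standard curve; activity normalized to a reference compound, EC50 from 4-parameter fit.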
Take `COc1cc(-c2ccc(C3CCc4ccc([C@H](C5CC5)[C@H](C)C(=O)O)cc4O3)nc2CN(C(C)C)C(C)C)ccn1` (stereo partly shown) [Example 91]: the EC50 (as a rule, the concentration giving half of the maximal effect) was determined as 467 nM.
`COc1cc(-c2ccc(C3CCc4ccc([C@H](C5CC5)[C@H](C)C(=O)O)cc4O3)c(CN(C)C(C)(C)C)c2)ccn1` (single isomer, unassigned) [Example 114a] showed a 50% effective concentration (EC50) of 1.5 nM.
`CCN(Cc1cc(C2CCc3ccc([C@H](C4CC4)[C@H](C)C(=O)O)cc3O2)ccc1-c1cc(OC)ncc1C#N)C(C)C` (stereo partly shown) [Example 294] gave an EC50 of 0.5 nM. Against the preceding molecule, the EC50 is about 3-fold lower.
`CCOc1cc(-c2ccc(C3CCc4ccc([C@H](C5CC5)[C@H](C)C(=O)O)cc4O3)cc2CN(CC)CC)c(F)cn1` (single isomer, unassigned) [Example 171, (2S, 3R)-3-cyclopropyl-3-((R or S)-2-(3-((diethylamino)methyl)-4-(2-ethoxy-5-fluoropyridin-4-yl)phenyl)chroman-7-yl)-2-methylpropanoic acid]: the concentration for a half-maximal effect (EC50) turned out to be 2.5 nM.
In the case of `CCN(Cc1cc(-c2ccnc(OC)c2)ccc1C1CCc2ccc([C@H](C3CC3)[C@H](C)C(=O)O)cc2O1)C(C)C` (mixture of isomers) [Example 113], the midpoint of the response, the EC50, lay at 0.7 nM.
Molecule `COc1cc(-c2ccc(C3CCc4ccc([C@H](C5CC5)[C@H](C)C(=O)O)cc4O3)cc2CNC(C)(C)C)c(F)cn1` (stereo partly shown) [Example 233] displayed a concentration for a half-maximal effect (EC50) of 42 nM.
`COc1cc(-c2ccc(C3CCc4ccc([C@H](C5CC5)[C@H](C)C(=O)O)c(F)c4O3)cc2CN2CCCCC23CC3)c(F)cn1` (single isomer, unassigned) [Example 203] gave a concentration for a half-maximal effect (EC50) of 0.16 nM.
On to `COc1cc(-c2ccc(C3CCc4ccc([C@H](C5CC5)[C@H](C)C(=O)O)cc4O3)cc2CN2CCC[C@@H]2C)ccn1` (stereo partly shown) [Example 279], for which the EC50 was 30 nM. Compared with the last molecule, the EC50 is about 190-fold higher.
As to `CCN(CC)Cc1cc(C2CCc3ccc([C@H](C4CC4)[C@H](C)C(=O)O)cc3O2)ccc1-c1ccnc(OC)c1` (single isomer, unassigned) [Example 221], a half-maximal effect (EC50) was put at 14 nM.
`COc1cc(-c2ccc(C3CCc4ccc([C@H](C5CC5)[C@H](C)C(=O)O)cc4O3)cc2CN2CCC3CC32)c(F)cn1` (single isomer, unassigned) [Example 256b] registered an EC50 of 0.9 nM. This EC50 is about 16-fold lower than that of the molecule before.
In the case of `COc1cc(-c2ccc([C@@H]3CCc4ccc([C@H](C5CC5)[C@H](C)C(=O)O)cc4O3)cc2CN(C(C)C)C(C)C)ccn1` [Example 284, Sodium (2S,3R)-3-cyclopropyl-3-((S)-2-(3-((diisopropylamino)methyl)-4-(2-methoxypyridin-4-yl)phenyl)chroman-7-yl)-2-methylpropanoate], a half-maximal effect (EC50) was put at 0.3 nM. Compared with the last molecule, the EC50 is about 3-fold lower.
The molecule `COc1cc(-c2ccc(C3CCc4ccc([C@H](C5CC5)[C@H](C)C(=O)O)cc4O3)cc2CN(C)C(C)C)ccn1` (stereo partly shown) [Example 286] showed an EC50 of 11 nM.
Consider `COc1cc(-c2ccc(C3CCc4ccc([C@H](C5CCC5)[C@H](C)C(=O)O)cc4O3)cc2CN2CCCCC23CC3)c(F)cn1` (single isomer, unassigned) [Example 107], for which a half-maximal response (EC50) required 0.1 nM. Against the preceding molecule, the EC50 is about 110-fold lower.
`CCN(Cc1cc(C2CCc3ccc([C@H](C4CC4)[C@H](C)C(=O)O)cc3O2)ccc1-c1ccnc(OC)c1)C(C)(C)C` (stereo partly shown) [Example 236] had an EC50 of 1.3 nM.
For the molecule `COc1cc(-c2ccc(C3CCc4ccc([C@H](C5CC5)[C@H](C)C(=O)O)c(F)c4O3)cc2CN2CCCC2(C)C)c(F)cn1` (single isomer, unassigned) [Example 207], the EC50 stood at 1.3 nM.
As for `COc1cc(-c2ccc(C3CCc4ccc([C@H](C5CC5)[C@H](C)C(=O)O)cc4O3)cc2CN2C(C)(C)CCCC2(C)C)ccn1` (stereo partly shown) [Example 238], the concentration for a half-maximal effect (EC50) is 0.14 nM.
Consider `COc1cc(-c2ccc(C3CCc4ccc([C@H](C5CC5)[C@H](C)C(=O)O)cc4O3)cc2CN2CCCC23CCC3)c(F)cn1` (stereo partly shown) [Example 264], for which a half-maximal response (EC50) required 0.2 nM.
Molecule `COc1cc(-c2ccc(C3CCc4ccc([C@H](C5CC5)[C@H](C)C(=O)O)cc4O3)cc2CN2C3CCCC2CC3)c(F)cn1` (stereo partly shown) [Example 270] registered a 50% effective concentration (EC50) of 0.9 nM. Compared with the last molecule, the EC50 is about 4.5-fold higher.
In the case of `COc1cc(-c2ccc(C3CCc4ccc([C@H](C5CC5)[C@H](C)C(=O)O)cc4O3)c(F)c2CN2CCCC2)c(F)cn1` (single isomer, unassigned) [Example 220] it was 7.2 nM; in that of `COc1cc(-c2ccc(C3CCc4ccc([C@H](C5CC5)[C@H](C)C(=O)O)cc4O3)c(CN3CCCC3)c2)ccn1` (single isomer, unassigned) [Example 112b], 273 nM; in that of `COc1cc(-c2ccc(C3CCc4ccc([C@H](C5CC5)[C@H](C)C(=O)O)cc4O3)c(CN(C(C)C)C(C)C)c2)ccn1` (mixture of isomers) [Example 115], 0.1 nM.
Consider `CCOc1cc(-c2ccc(C3CCc4ccc([C@H](C5CC5)[C@H](C)C(=O)O)cc4O3)cc2CN2CCCC2)c(F)cn1` (single isomer, unassigned) [Example 174], for which the response was half-maximal at 27 nM (EC50).
Consider `CCOc1cc(-c2ccc(C3CCc4ccc([C@H](C5CC5)[C@H](C)C(=O)O)cc4O3)cc2CN2CCCC2)c(F)cn1` (single isomer, unassigned) [Example 173], for which a half-maximal response (EC50) required 50 nM.
To `COc1cc(-c2ccc(C3CCc4ccc([C@H](C5CC5)[C@H](C)C(=O)O)cc4O3)cc2CN2[C@H](C)CC[C@@H]2C)c(F)cn1` (stereo partly shown) [Example 251] belongs 0.3 nM; to `COc1cc(-c2ccc(C3CCc4ccc([C@H](C5CC5)[C@H](C)C(=O)O)cc4O3)cc2CN2CCC3(CC3)C2)c(F)cn1` (stereo partly shown) [Example 263], 0.8 nM; to `COc1cc(-c2ccc(C3CCc4ccc([C@H](C5CC5)[C@H](C)C(=O)O)cc4O3)cc2CN2[C@H](C)CC[C@@H]2C)ccn1` (stereo partly shown) [Example 275], 2.8 nM.
In turn, `COc1cc(-c2ccc(C3CCc4ccc([C@H](C5CC5)[C@H](C)C(=O)O)cc4O3)cc2CN2CCCCC23CCC3)c(F)cn1` (stereo partly shown) [Example 262] came in with an EC50 of 0.2 nM.
Regarding `COc1cc(-c2ccc(C3CCc4ccc([C@H](C5CC5)[C@H](C)C(=O)O)cc4O3)cc2CN2CCC(C)(C)C2)ccn1` (stereo partly shown) [Example 282], the midpoint of the response, the EC50, lay at 7.4 nM.
To `COc1cc(-c2ccc(C3CCc4ccc([C@H](C5CC5)[C@H](C)C(=O)O)cc4O3)cc2C(C)N2CCCC2)ccn1` (stereo partly shown) [Example 249] belongs 14.2 nM; to `CCN(CC)Cc1cc(C2CCc3ccc([C@H](C4CC4)[C@H](C)C(=O)O)cc3O2)ccc1-c1ccnc(OC)c1` (single isomer, unassigned) [Example 283], 4.4 nM.
On to `CCN(CC)Cc1cc(C2CCc3ccc([C@H](C4CC4)[C@H](C)C(=O)O)c(F)c3O2)ccc1-c1cc(OC)ncc1F` (single isomer, unassigned) [Example 205], for which the concentration for a half-maximal effect (EC50) worked out at 2.4 nM. This EC50 is about 1.8-fold lower than that of the molecule before.
`COc1cc(-c2ccc(C3CCc4ccc([C@H](C5CC5)[C@H](C)C(=O)O)cc4O3)c(CN3CCCC[C@H]3C)c2)c(F)cn1` (single isomer, unassigned) [Example 130a] registered an EC50 of 8.7 nM.
Regarding `COc1cc(-c2ccc(C3CCc4ccc([C@H](C5CC5)[C@H](C)C(=O)O)c(F)c4O3)cc2CN2[C@H](C)CC[C@H]2C)c(F)cn1` (single isomer, unassigned) [Example 208], the response was half-maximal at 0.73 nM (EC50). Compared with the last molecule, the EC50 is about 12-fold lower.
Take `COc1cc(-c2ccc(C3CCc4ccc([C@H](C5CC5)[C@H](C)C(=O)O)cc4O3)c(CN3CCC[C@@H]3C)c2)ccn1` (single isomer, unassigned) [Example 118a]: the EC50 is 0.6 nM.
